“Also recorded” adds a separate entry of the source. Square brackets hold non-standard residues; d marks the D form. Ends that are not written are not given here. dOrn = NCCC[C@@H](N)C(=O)O
What follows are substances tested on bacteria (assay: Binding of targeting peptides to microorganisms (Table 3)). Settings: microorganism bound by the targeting peptide; binding in aqueous buffers chosen by peptide solubility, preferably 1x PBS.

Substance | Target(s)
PF-207 (AAGCRDLGSLSSLVTNPS; Peptide with targeting and/or antimicrobial activity) | M. luteus; also recorded: C. jeikeium
PF-134 (GKAMKRQDCSAL; Peptide with targeting and/or antimicrobial activity) | S. epidermidis; also recorded: C. jeikeium
PF-308 (QQYLILDRM; Peptide with targeting and/or antimicrobial activity) | C. difficile
PF-365 (LYKQKIQLEEELEKLKDDRQ; Peptide with targeting and/or antimicrobial activity) | S. epidermidis; also recorded: B. subtilis; also recorded: B. fragilis; also recorded: P. aeruginosa; also recorded: C. albicans
PF-259 (LPFSKIGRRVSYKKKDVLKYEQSKTVLNTAQLATV; Peptide with targeting and/or antimicrobial activity) | S. epidermidis; also recorded: P. aeruginosa; also recorded: A. baumannii
PF-194 (MKGNKLATAHEQPVKNSAPPL; Peptide with targeting and/or antimicrobial activity) | C. jeikeium
PF-130 (LQRSDEESMPRRHEKYS; Peptide with targeting and/or antimicrobial activity) | E. faecalis; also recorded: C. jeikeium; also recorded: C. jejuni
PF-295 (NIQVYESECGNYIFKKSDESFLIDIFDKNGTH; Peptide with targeting and/or antimicrobial activity) | C. difficile
PF-131 (RRAAARTKGNRR; Peptide with targeting and/or antimicrobial activity) | S. epidermidis and E. coli and MRSA and C. jeikeium
PF-214 (GHLRVCWVFSASLLTPFRSATLI; Peptide with targeting and/or antimicrobial activity) | S. mutans; also recorded: S. epidermidis; also recorded: M. luteus; also recorded: E. coli; also recorded: P. aeruginosa; also recorded: A. baumannii
PF-245 (MNDVKPVVQPKQTLKAFLVQLLSVRAGVYIKQNNQLPKTKG; Peptide with targeting and/or antimicrobial activity) | S. epidermidis; also recorded: M. luteus; also recorded: P. aeruginosa; also recorded: A. baumannii
PF-202 (ALNRASLRLALGE; Peptide with targeting and/or antimicrobial activity) | S. epidermidis and M. luteus and E. coli and MRSA and E. faecalis and C. jeikeium and C. jejuni
PF-174 (RGGDSPARRRPGLAGPGGPG; Peptide with targeting and/or antimicrobial activity) | S. epidermidis; also recorded: P. aeruginosa; also recorded: C. jeikeium
PF-104 (ERTAVNDLWI; Peptide with targeting and/or antimicrobial activity) | MRSA and C. jeikeium
PF-218 (SETPEKPVGTFFYSIYYKIIL; Peptide with targeting and/or antimicrobial activity) | S. epidermidis; also recorded: M. luteus; also recorded: P. aeruginosa; also recorded: A. baumannii
PF-232 (FDQLYALEREGKLDELLA; Peptide with targeting and/or antimicrobial activity) | S. epidermidis; also recorded: M. luteus
PF-166 (SKAVSRKRSI; Peptide with targeting and/or antimicrobial activity) | E. coli; also recorded: C. jeikeium

Same assay, conditions: microorganism the targeting peptide binds; binding in aqueous buffers that varied with peptide solubility, preferably 1x PBS

Substance | Target(s)
PF-039 (MLEEKNKSL; Peptide with targeting and/or antimicrobial activity) | P. mirabilis; also recorded: C. jeikeium
CHA0 (D[dOrn]KTAA[dOrn]K; bridge (positions not given here); not fully specified (bridges)) | P. fluorescens
1T-287 (KGYPLPFQYRLNNH; Peptide with targeting and/or antimicrobial activity) [Peptide 1T-287] | P. gingivalis; also recorded: T. denticola; also recorded: S. gordonii; also recorded: S. mitis; also recorded: S. mutans; also recorded: S. oralis; also recorded: S. salivarious; also recorded: S. sanguinis
PF-S024 (SKRGRKRKDRRKKKANHGKRPNS; Peptide with targeting and/or antimicrobial activity) | Corynebacteria
1T-256 (KGKSLMPLLKQINQWGKLYL; Peptide with targeting and/or antimicrobial activity) [Peptide 1T-256] | S. sanguinis
PF-054 (VSISRFIGGGHVFNGNNKRNL; Peptide with targeting and/or antimicrobial activity) | S. epidermidis; also recorded: E. coli
1T-264 (LEGKFYMAEDFDKTPECFKDYV; Peptide with targeting and/or antimicrobial activity) [Peptide 1T-264] | S. sanguinis
1T-242 (KQVQNTTLIICGTVLLGILFKSYLKSQKSV; Peptide with targeting and/or antimicrobial activity) [Peptide 1T-242] | F. nucleatum; also recorded: S. sanguinis
1T-199 (RAGRIKKLSQKEAEPFEN; Peptide with targeting and/or antimicrobial activity) [Peptide 1T-199] | S. sanguinis
1T-239 (ADDLLNKRLTDLIMENAETVKTIDLDNSD; Peptide with targeting and/or antimicrobial activity) [Peptide 1T-239] | A. naeslundii; also recorded: S. gordonii; also recorded: S. mitis; also recorded: S. mutans; also recorded: S. oralis; also recorded: S. sanguinis

Same assay, conditions: peptide binding in aqueous buffers that varied depending on peptide solubility; preferably 1x PBS

Substance | Target(s) (microorganism bound by the targeting peptide) | Target(s) (microorganisms bound by the targeting peptide)
PF-S015 (IENLERGARRPP; Peptide with targeting and/or antimicrobial activity) | S. epidermidis and MRSA and C. jeikeium | –
PF-750 (AESSPAKTTA; Peptide with targeting and/or antimicrobial activity) | M. luteus; also recorded: C. jeikeium | –
PF-712 (QIYRHVHKVQAKSANLRLY; Peptide with targeting and/or antimicrobial activity) | S. mutans; also recorded: E. coli | –
PF-436 (KKHVLVGKQEKNG; Peptide with targeting and/or antimicrobial activity) | – | C. jeikeium
PF-490 (RLILVSGNATVQK; Peptide with targeting and/or antimicrobial activity) | – | S. mutans; also recorded: E. coli
PF-641 (SWKCHHLAIGGSWKCHHLAI; Peptide with targeting and/or antimicrobial activity) | S. epidermidis and M. luteus and E. coli and C. albicans and MRSA and E. faecalis and C. jeikeium and C. jejuni | –
PF-C134 (NELMKYPATLTATATTPGIKYSHLCSVCL; Peptide with targeting and/or antimicrobial activity) | A. naeslundii; also recorded: F. nucleatum; also recorded: P. gingivalis; also recorded: S. mutans; also recorded: T. denticola | –
PF-674 (DGCDSEPALTYR; Peptide with targeting and/or antimicrobial activity) | S. mutans; also recorded: E. coli | –
PF-701 (PRGAQSGHG; Peptide with targeting and/or antimicrobial activity) | S. mutans | –
PF-412 (TSGWLGQLEQ; Peptide with targeting and/or antimicrobial activity) | – | M. luteus; also recorded: E. coli; also recorded: C. albicans; also recorded: C. jeikeium; also recorded: C. jejuni

Same assay, conditions: peptide binding in aqueous buffers varied by peptide solubility; preferably 1x PBS

Substance | Target(s) (microorganism bound by the targeting peptide)
1T-55 (NHKTLKEWKAKWGPEAVESWATLLG; Peptide with targeting and/or antimicrobial activity) [Peptide 1T-55] | C. xerosis; also recorded: P. aeruginosa
1T-53 (SDILAEMFEKGELQTLVKDAAAKANA; Peptide with targeting and/or antimicrobial activity) [Peptide 1T-53] | P. aeruginosa
1T-123 (LVRRNAVAGRSDGLAGAEQLDLVRLQGVL; Peptide with targeting and/or antimicrobial activity) [Peptide 1T-123] | S. gordonii
1T-52 (DEYPAKLPLSDKGATEPRRH; Peptide with targeting and/or antimicrobial activity) [Peptide 1T-52] | S. aureus; also recorded: C. xerosis; also recorded: P. aeruginosa
1T-63 (EPLILKELVRNLFLFCYARALR; Peptide with targeting and/or antimicrobial activity) [Peptide 1T-63] | S. aureus; also recorded: S. epidermidis; also recorded: C. jeikeium; also recorded: C. xerosis; also recorded: C. striatum; also recorded: P. aeruginosa
1T-3 (VLGIAGGLDAYGELVGGN; Peptide with targeting and/or antimicrobial activity) [Peptide 1T-3] | S. mutans; also recorded: S. gordonii
1T-51 (GKPKRMPAEFIDGYGQALLAGA; Peptide with targeting and/or antimicrobial activity) [Peptide 1T-51] | S. aureus; also recorded: P. aeruginosa
1T-99 (MKAWLGQ; Peptide with targeting and/or antimicrobial activity) [Peptide 1T-99] | S. gordonii; also recorded: S. mitis; also recorded: S. mutans; also recorded: S. oralis; also recorded: S. sanguinis
1T-61 (HATLLPAVREAISRQLLPALVPRG; Peptide with targeting and/or antimicrobial activity) [Peptide 1T-61] | P. aeruginosa
1T-14 (ALAGLAGLISGK; Peptide with targeting and/or antimicrobial activity) [Peptide 1T-14] | S. mutans; also recorded: S. aureus; also recorded: S. epidermidis; also recorded: C. xerosis
